The text below walks through data of paper PMC10451377, “Rationally Designed Pyrimidine Compounds: Promising Novel Antibiotics for the Treatment of Staphylococcus aureus-Associated Bovine Mastitis” (Antibiotics, 2023).

In general, MIC50 refers to the lowest concentration that inhibits either 50% of growth or 50% of the strains tested, depending on the study. One may read the MIC90 as an inhibitory concentration at the 90% level, which refers to growth in some studies and to a panel of isolates in others. One may read the MIC as the lowest concentration found to suppress growth. The term CC50 denotes the concentration at which the toxic effect on the cells reaches its halfway point.

One data set concerns S. hominis. In words: Susceptibility of isolate panel (MIC50, MIC90, range). In kind it is cell-based. Particulars: S. hominis, 10 isolates. From the text:
Reference strains for this study (S. aureus ATCC 29213, ATCC 29740 [bovine mastitis strain Newbould], S. epidermidis ATCC 12228, E. coli ATCC 35695, E. faecalis ATCC 29212) were obtained from the American Type Culture Collection (ATCC, Rockville, MD). S. aureus strains CMRSA-10 and CMRSA-2 were obtained from the Laboratoire de santé publique du Québec (LSPQ, Sainte-Anne-de-Bellevue, QC, Canada) and are Canadian CA-MRSA USA-300 and HA-MRSA USA-100 clones, respectively. The strain E. coli imp4213 (lptD), used as a control in MIC assays, is a derivative of E. coli ATCC 35695 (E. coli MC4100) with an increased membrane permeability. […] Other MRSA strains used in this study are clinical isolates of human origin obtained from the microbiology laboratory of the Centre Hospitalier Universitaire de Sherbrooke (CHUS, Sherbrooke, QC, Canada). Bovine mastitis strains (S. aureus, S. chromogenes, S. haemolyticus, S. hominis, S. simulans) were obtained from the Canadian Bovine Mastitis and Milk Quality Research Network (CBRQMN, St-Hyacinthe, QC, Canada). Among these strains, S. aureus 2117 is a high producer of biofilm and was used in the biofilm-eradication assay. S. epidermidis isolates were provided by Centre de Recherche en Infectiologie (CRI) de Québec (Québec, QC, Canada).
The antibacterial activity of the most promising compound, PC206, was also evaluated against larger groups of clinical isolates of human and animal origin. The MIC50 and MIC90 values represented the concentrations of drug required to inhibit the growth of 50% and 90% of the bacterial strains tested, respectively.

The subject of data set [1] is Enterococcus faecalis ATCC 29212. The data set can be described thus: Broth microdilution MIC. The following applies: ATCC29212, read-out: Broth Microdilution MIC.
The test system of data set [2] is Escherichia coli ATCC 35695. In words: Broth microdilution MIC. The following applies: ATCC35695, read-out: Broth Microdilution MIC. For orientation: In broth dilution the organism is exposed to a series of concentrations in liquid medium.
Another data set can be described thus: MTT assay. It counts as cell-based. Particulars: bovine, MAC-T cells. (In general: Tetrazolium assays rely on reduction of a dye to a coloured formazan, in cell work by metabolically active cells.)
In data set [3] the test system is S. aureus bovine strain 2117 embedded in preformed biofilm. The data set can be described thus: Biofilm-eradication test (MBEC assay). In kind it is cell-based, Staphylococcus aureus. Particulars: 24 h exposure. On the procedure:
The viability of bacteria in preformed biofilms treated with PC206 was evaluated using the MBEC assay™ system (formerly the Calgary Biofilm Device). The device consists of a plastic lid with 96 pegs and a 96-well plate. […] Plates were incubated at 35 °C for 24 h with agitation (120 rpm). […] The pegs were washed three times with PBS and the biofilm was sonicated for 10 min, and then transferred into a new 96-well base plate. The 96-well plate was centrifuged for 5 min at 180 g to recover the detached bacteria.

Data set [4] in a line: Recovery of PC206 from quarter milk after intramammary infusion. In kind it is in vivo. Particulars: cows. As to the method:
The innocuity of PC206 was evaluated in cows, as previously described for other test substances. Following morning milking, each of the four mammary gland quarters […] was infused with various doses of PC206 (100, 250, 500 mg) or saline as a negative control. […] Cows were milked using an individual quarter-milking unit in order to measure individual quarter-milk production. PC206 concentration in milk was also measured; milk samples were diluted with an equal volume of isopropanol and washed 3 times with hexane. PC206 was extracted using ethyl acetate, filtered on Na2SO4, and evaporated. The dried samples were diluted 80:20 in ACN:H2O containing an internal standard. The content of PC206 was determined using single-ion monitoring (SIMS) on UPLC-MS.

The next data set is described as follows: Metabolic stability. It counts as in vitro ADME. The following applies: mouse, CD-1 female mice liver S9 fraction, 60 min, mono-exponential decay model, read-out: Half-life (T1/2). As to the method: All incubations were performed minimally in triplicate. A total of 1 mL of mice liver S9 fraction (XenoTech, Kansas City, KS, USA) was fortified with 50 μL of NADPH-regenerating solution A and 10 μL of solution B (Corning BD Biosciences catalog no. 451200) and preincubated at 37 °C for 5 min prior to the addition of PC206. Immediately after fortification of PC206 into the mice liver S9 fraction containing the NADPH-regeneration system, the sampling points were taken at 2, 5, 10, 15, 30, 45 and 60 min for metabolic stability experiments (i.e., the substrate concentration was 10 μM). Samples of 50 μL were taken and mixed with 250 μL of the internal standard solution (caffeine) in microcentrifuge tubes. The samples were centrifuged at 12,000× g for 10 min and 200 μL of the supernatant was transferred into an injection vial for HPLC-MS analysis. A Q Exactive Orbitrap Mass Spectrometer was interfaced with a Vanquish Flex UHPLC system (Thermo Fisher Scientific, Rochester, NY, USA). […] Targeted drug quantification was performed by MS detection using specific precursor masses based on monoisotopic masses (i.e., [M + H]^+ ions). Quantification was performed by extracting specific precursor ions using a 5 ppm mass window.

≈ marks a conversion by molar mass, not a printed value.

Consider `CCCCCCNc1cc(N)nc(N)n1` [PC206], for which the “MIC Range” value in the data set on S. hominis lay within 1 to 32 µg/mL. Moreover, in the data set on S. hominis (Staphylococcus hominis, read-out: MIC50), the MIC50 is 8 µg/mL (≈ 38.2 µM). Also, in the data set on S. hominis (Staphylococcus hominis, read-out: MIC90), the MIC90 came to 32 µg/mL (≈ 153 µM). The MIC in data set [1] is 128 µg/mL (≈ 612 µM); in data set [2] it was over 128 µg/mL. Also, the CC50 at 24 h in the data set “MTT assay” (24 h) was 317 ± 43 µM; in “MTT assay” (converted from μM), 66 µg/mL. In addition, the entries for the “Reduction in CFU/peg compared to the untreated biofilm” value in data set [3] (32 µg/mL), in data set [3] (128 µg/mL) and in data set [3] (512 µg/mL) were 1.28 log10, 2.40 log10 and 5.43 log10, respectively. Moreover, the “Time the concentration in quarter milk remained above the MIC (8 µg/mL)” value was “over 2 h” in data set [4] (single intramammary infusion of 100 mg), over 4 h in data set [4] (single intramammary infusion of 250 mg) and “about 8 h” in data set [4] (single intramammary infusion of 500 mg). Also, in the data set “Metabolic stability”, the half-life at 10 µM was 1.39 h.
